Converted amounts (≈) assume the structure as drawn. The source made the active and inactive calls. The rule behind the calls is not given here.
Legend:
[1] = target: T1, Mitogen-activated protein kinase kinase kinase 5 (Homo sapiens, UniProt Q99683); experiment: Inhibition of stress-activated full length recombinant human N-terminal GST-tagged ASK1 expressed in baculovirus expression system using MKK6 as substrate pretreated for 10 mins followed by substrate addition by Alphascreen assay
T1 sequence (Q99683 whole entry): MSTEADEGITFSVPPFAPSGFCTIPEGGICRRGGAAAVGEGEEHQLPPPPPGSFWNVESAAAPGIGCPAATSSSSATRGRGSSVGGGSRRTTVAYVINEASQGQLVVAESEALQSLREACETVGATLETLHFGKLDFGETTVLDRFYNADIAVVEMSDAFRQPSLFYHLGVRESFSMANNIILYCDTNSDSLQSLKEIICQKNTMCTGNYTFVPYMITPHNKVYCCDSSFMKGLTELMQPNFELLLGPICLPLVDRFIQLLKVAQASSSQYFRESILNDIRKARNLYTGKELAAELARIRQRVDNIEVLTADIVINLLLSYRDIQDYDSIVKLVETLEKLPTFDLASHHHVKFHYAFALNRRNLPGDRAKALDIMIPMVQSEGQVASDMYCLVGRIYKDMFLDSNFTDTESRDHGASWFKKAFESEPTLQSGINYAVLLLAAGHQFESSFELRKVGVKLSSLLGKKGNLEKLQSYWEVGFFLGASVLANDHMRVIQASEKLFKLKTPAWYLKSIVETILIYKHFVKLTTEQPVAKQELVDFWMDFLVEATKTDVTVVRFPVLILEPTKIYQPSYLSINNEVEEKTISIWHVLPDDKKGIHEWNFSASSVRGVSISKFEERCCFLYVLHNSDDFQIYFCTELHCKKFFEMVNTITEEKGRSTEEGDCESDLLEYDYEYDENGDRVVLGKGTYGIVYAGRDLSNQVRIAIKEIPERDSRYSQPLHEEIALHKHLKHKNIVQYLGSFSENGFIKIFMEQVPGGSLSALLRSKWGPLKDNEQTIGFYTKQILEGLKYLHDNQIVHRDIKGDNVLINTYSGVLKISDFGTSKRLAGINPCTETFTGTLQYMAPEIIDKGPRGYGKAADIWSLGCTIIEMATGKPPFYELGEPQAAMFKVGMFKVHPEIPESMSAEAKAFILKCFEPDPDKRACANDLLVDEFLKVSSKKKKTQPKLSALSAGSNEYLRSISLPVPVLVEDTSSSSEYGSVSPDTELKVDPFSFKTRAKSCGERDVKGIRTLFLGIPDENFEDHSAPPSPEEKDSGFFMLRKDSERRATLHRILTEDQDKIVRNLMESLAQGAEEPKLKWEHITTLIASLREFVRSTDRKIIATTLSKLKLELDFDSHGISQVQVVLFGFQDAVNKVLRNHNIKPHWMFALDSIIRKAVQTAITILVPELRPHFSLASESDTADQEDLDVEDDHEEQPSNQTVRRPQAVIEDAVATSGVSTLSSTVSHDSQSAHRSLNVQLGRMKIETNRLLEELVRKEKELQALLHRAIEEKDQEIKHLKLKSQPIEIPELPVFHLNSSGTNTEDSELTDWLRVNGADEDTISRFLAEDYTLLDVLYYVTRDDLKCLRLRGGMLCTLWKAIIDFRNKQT

[2] = target: T2, Mitogen-activated protein kinase kinase kinase 5 (Rattus norvegicus) (UniProt D3ZZH6); experiment: Inhibition of […] in rat INS-1E cells assessed as reduction in TNFalpha-induced […] phosphorylation at ser207 residues up to 10 uM by immunoblot analysis; format: cell-based
T2 sequence (whole entry): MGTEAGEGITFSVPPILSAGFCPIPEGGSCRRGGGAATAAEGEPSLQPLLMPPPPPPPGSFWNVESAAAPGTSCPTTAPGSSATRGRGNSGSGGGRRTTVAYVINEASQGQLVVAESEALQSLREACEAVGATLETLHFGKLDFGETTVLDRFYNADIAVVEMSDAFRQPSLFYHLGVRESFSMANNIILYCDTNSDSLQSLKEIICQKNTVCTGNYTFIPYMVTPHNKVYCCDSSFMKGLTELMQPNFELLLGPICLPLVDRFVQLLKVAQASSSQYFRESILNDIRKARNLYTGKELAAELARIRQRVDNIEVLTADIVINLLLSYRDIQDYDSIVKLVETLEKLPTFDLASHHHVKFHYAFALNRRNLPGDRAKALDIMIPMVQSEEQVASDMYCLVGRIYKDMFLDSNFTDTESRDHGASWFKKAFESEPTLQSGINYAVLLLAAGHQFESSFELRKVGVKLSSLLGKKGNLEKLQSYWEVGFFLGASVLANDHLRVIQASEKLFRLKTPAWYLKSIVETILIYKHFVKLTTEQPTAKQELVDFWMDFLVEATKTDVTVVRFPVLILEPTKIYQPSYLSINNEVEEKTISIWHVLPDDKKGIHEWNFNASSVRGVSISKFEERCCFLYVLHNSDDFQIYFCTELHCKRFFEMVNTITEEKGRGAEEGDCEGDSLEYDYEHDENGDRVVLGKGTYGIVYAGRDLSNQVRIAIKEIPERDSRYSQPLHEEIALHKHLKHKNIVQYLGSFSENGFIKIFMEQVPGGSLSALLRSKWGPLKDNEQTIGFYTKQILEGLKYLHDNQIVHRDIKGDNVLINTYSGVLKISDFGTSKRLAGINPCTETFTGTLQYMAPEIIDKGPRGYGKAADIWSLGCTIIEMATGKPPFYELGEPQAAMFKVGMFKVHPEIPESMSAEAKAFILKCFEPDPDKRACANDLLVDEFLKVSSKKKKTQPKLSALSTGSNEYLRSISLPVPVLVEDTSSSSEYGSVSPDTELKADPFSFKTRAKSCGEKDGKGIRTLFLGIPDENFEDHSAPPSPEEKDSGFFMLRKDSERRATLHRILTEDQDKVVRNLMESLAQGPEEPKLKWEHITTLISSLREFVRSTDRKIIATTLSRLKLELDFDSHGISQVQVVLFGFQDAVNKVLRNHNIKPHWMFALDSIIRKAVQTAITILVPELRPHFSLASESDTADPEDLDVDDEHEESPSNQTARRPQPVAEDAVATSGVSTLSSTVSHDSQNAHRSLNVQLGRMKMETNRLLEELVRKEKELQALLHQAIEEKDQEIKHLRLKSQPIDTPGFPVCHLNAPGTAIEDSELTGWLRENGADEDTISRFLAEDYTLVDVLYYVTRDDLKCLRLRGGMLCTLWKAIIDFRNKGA

[3] = Solubility of the compound in phosphate buffered saline at pH 7.4; format: physicochemical; conditions: buffer
[4] = Stability in human liver microsomes; format: ADME, microsome; conditions: read-out: Stability
[5] = Stability in mouse liver microsomes; format: ADME, microsome; conditions: read-out: Stability
[6] = Stability in rat liver microsomes; format: ADME, microsome; conditions: read-out: Stability
CYP1A2 = target: T3, CYP1A2 (Homo sapiens, UniProt P05177); experiment: Inhibition of CYP1A2 (unknown origin) at 10 uM relative to control; format: ADME
T3 sequence (P05177 whole entry): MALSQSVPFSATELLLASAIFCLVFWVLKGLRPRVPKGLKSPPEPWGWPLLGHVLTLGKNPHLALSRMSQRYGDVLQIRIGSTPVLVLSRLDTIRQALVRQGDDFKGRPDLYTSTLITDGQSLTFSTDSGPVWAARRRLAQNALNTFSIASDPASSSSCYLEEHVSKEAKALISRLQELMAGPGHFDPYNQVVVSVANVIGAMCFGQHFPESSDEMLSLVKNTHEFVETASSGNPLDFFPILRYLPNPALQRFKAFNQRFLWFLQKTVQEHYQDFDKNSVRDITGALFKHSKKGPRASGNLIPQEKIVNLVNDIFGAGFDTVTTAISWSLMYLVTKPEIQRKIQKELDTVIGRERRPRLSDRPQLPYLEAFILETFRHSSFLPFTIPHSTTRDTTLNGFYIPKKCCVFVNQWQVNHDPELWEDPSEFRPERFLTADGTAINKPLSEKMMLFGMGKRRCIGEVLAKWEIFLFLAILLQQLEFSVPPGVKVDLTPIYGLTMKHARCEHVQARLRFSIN

CYP2C9 = CYP2C9 (Homo sapiens, UniProt P11712); experiment: Inhibition of CYP2C9 (unknown origin) at 10 uM relative to control; format: ADME
Sequence of CYP2C9 (P11712 whole entry): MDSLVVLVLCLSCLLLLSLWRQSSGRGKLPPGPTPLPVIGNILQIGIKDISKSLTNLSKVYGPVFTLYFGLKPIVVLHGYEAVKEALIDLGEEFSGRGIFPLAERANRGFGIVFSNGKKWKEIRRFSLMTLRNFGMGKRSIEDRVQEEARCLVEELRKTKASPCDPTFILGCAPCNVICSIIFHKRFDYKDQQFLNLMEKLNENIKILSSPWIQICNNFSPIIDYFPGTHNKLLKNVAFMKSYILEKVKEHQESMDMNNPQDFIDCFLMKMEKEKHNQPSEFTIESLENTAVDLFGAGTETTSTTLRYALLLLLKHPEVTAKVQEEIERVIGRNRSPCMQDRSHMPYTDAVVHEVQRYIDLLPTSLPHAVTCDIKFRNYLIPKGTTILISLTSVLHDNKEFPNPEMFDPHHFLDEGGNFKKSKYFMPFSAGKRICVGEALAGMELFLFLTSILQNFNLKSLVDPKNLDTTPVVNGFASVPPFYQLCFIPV

CYP2D6 = CYP2D6 (Homo sapiens, UniProt P10635); experiment: Inhibition of CYP2D6 (unknown origin) at 10 uM relative to control; format: ADME
Sequence of CYP2D6 (P10635 whole entry): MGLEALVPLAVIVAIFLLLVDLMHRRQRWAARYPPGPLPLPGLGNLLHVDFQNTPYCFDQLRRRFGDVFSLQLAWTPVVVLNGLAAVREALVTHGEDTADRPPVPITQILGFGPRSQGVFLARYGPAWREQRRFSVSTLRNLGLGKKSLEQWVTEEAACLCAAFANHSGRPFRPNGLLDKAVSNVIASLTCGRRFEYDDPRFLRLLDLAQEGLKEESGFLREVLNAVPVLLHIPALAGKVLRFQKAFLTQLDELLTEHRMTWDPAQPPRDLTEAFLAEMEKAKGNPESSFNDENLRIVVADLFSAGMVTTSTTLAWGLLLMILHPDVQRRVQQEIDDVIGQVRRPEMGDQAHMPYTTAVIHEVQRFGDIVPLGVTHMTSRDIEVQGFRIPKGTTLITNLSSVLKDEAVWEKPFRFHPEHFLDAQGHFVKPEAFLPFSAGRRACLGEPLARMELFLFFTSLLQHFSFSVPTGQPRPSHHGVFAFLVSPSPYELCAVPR

CYP3A4 = CYP3A4 (Homo sapiens, UniProt P08684); experiment: Inhibition of CYP3A4 (unknown origin) at 10 uM relative to control; format: ADME
Sequence of CYP3A4 (P08684 whole entry): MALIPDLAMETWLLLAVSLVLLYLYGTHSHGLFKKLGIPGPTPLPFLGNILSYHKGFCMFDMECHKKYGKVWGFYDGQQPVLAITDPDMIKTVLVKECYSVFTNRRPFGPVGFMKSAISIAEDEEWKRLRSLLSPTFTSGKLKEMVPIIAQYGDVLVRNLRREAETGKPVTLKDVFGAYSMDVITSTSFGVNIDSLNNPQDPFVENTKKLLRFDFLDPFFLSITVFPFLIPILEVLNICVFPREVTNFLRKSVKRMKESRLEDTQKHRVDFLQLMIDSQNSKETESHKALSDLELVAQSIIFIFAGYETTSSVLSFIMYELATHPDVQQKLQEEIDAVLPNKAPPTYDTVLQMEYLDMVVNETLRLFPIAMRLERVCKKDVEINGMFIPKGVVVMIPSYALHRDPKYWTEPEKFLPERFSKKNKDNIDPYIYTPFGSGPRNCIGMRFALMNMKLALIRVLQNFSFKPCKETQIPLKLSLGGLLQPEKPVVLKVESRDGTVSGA

- IC50 [1]: 900 nM
- inhibition [2]: Active
- solubility [3]: 100 µM (≈ 27.8 µg/mL)
- half-life [4]: 6 min
- half-life [5]: 2 min
- half-life [6]: 4 min
- inhibition at 10 µM (CYP1A2): 94%
- inhibition at 10 µM (CYP2C9): 20%
- inhibition at 10 µM (CYP2D6): 13%
- inhibition at 10 µM (CYP3A4): -13%
Structure (SMILES): CC(=O)Nc1cccc(Nc2ncc3ccccc3n2)c1

— ChEMBL document CHEMBL4184100, “Discovery of 2-arylquinazoline derivatives as a new class of ASK1 inhibitors” (Bioorg Med Chem Lett, 2018)
